Patent US20210198277A1, “AMINE-SUBSTITUTED ARYL OR HETEROARYL COMPOUNDS” (Epizyme, Inc., priority 2016, published 2021)

biological target: T1, EHMT2 (Homo sapiens, UniProt Q96KQ7); assay: MDA-MB-231 H3K9me2 in-cell Western assay (EHMT2 ICW); assay type: cell-based; conditions: Table III; MDA-MB-231 H3K9me2 in-cell Western; read-out: EHMT2 ICW (IC50 μM)
T1 construct: host or cells: MDA-MB-231
T1 sequence (Q96KQ7 1-1210): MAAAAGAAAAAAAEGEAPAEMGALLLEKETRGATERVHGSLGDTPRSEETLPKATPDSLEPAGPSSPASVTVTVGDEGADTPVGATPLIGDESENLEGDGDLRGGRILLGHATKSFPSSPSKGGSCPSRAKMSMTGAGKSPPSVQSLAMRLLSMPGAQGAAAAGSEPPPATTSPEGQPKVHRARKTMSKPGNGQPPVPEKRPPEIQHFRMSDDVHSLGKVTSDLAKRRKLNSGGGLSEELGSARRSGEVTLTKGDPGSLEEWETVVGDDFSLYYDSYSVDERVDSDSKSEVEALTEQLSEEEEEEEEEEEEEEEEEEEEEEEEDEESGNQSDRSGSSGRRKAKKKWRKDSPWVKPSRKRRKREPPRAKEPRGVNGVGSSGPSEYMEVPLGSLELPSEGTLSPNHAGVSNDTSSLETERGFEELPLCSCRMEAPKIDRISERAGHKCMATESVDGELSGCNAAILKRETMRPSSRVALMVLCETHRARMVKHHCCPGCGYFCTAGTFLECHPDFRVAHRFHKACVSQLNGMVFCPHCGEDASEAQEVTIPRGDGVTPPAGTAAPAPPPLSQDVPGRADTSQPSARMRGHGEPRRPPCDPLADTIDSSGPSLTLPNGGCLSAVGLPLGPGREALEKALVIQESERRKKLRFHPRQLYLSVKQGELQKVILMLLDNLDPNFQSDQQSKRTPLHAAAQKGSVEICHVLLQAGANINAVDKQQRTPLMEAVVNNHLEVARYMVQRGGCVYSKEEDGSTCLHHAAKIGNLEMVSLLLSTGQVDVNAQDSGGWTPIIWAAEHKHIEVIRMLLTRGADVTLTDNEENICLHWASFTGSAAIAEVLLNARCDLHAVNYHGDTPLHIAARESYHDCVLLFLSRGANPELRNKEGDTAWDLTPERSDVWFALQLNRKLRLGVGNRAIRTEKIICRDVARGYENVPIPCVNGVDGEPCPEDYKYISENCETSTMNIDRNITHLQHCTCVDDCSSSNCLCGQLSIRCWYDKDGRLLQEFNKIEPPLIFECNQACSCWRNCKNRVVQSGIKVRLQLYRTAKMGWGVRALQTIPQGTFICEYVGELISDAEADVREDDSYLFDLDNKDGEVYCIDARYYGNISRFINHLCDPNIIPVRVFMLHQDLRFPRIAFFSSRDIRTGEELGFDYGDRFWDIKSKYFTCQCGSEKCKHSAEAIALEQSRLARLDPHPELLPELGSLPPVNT
In short: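 Infrared read-out at 800 and 700 nm (H3K9me2 antibody vs DRAQ5 DNA stain) of fixed MDA-MB-231 cells after 48 h compound treatment at 37 °C. Well ratios were converted to percent inhibition, and IC50 was obtained by variable-slope nonlinear regression on triplicates.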

SMILES	IC50 [µM]
CCNC(=O)c1cccc(Nc2nccc(NC)n2)c1 [Compound 394]	> 10
CCNC(=O)c1cc(Nc2nccc(NC)n2)ccc1OC [Compound 395]	> 10
CCNC(=O)c1cc(Nc2nccc(NC)n2)ccc1Cl [Compound 396]	> 10
CNc1ccnc(Nc2cccc(N3CCC(N(C)C)C3)c2)n1 (centres unmarked) [Compound 397]	> 10
CNc1ccnc(Nc2cccc(N3CCC(N)C3)c2)n1 (centres unmarked) [Compound 400]	> 10
COc1ccc(Nc2ccc3cn(C)nc3n2)cc1OCCCN1CCCC1 [Compound 402]	> 10
CNc1ccnc(Nc2ccc3cn(CCN(C)C)nc3c2)n1 [Compound 404, N^2-(2-(2-(dimethylamino)ethyl)-2H-indazol-6-yl)-N^4-methylpyrimidine-2,4-diamine]	> 10
CNc1ccnc(Nc2ccc3cn(CCCN(C)C)nc3c2)n1 [Compound 405]	> 10
CNc1ccnc(Nc2ccc(OC)c(OCC3CCN(CCOC)C3)c2)n1 (centres unmarked) [Compound 410, N^2-(4-methoxy-3-((1-(2-methoxyethyl)pyrrolidin-3-yl)methoxy)phenyl)-N^4-methylpyrimidine-2,4-diamine]	> 10
CNc1ccnc(Nc2ccc(OC)c(OCC3CCCN(C)C3)c2)n1 (centres unmarked) [Compound 412, N^2-(4-methoxy-3-((1-methylpiperidin-3-yl)methoxy)phenyl)-N^4-methylpyrimidine-2,4-diamine]	1 to 10
CCCN1CCC(COc2cc(Nc3nccc(NC)n3)ccc2OC)C1 (centres unmarked) [Compound 420, N^2-(4-methoxy-3-((1-propylpyrrolidin-3-yl)methoxy)phenyl)-N^4-methylpyrimidine-2,4-diamine]	1 to 10
CNc1cc(C)nc(Nc2ccc(OC)c(COC3CCN(C)C3)c2)n1 (centres unmarked) [Compound 421, N^2-(4-methoxy-3-(((1-methylpyrrolidin-3-yl)oxy)methyl)phenyl)-N^4,6-dimethylpyrimidine-2,4-diamine]	1 to 10
CNc1ccnc(Nc2ccc(OC)c(OCC3CCN(CC4CC4)C3)c2)n1 (centres unmarked) [Compound 422, N^2-(3-((1-(cyclopropylmethyl)pyrrolidin-3-yl)methoxy)-4-methoxyphenyl)-N^4-methylpyrimidine-2,4-diamine]	1 to 10

The remaining lines, values ahead:

IC50 [µM]	SMILES
1 to 10	CNc1cc(C)nc(Nc2cccc(OCCCN3CCCC3)c2)n1 [Compound 391]
1 to 10	COc1ccc(Nc2nccc(NCC(F)(F)F)n2)cc1OCCCN1CCCC1 [Compound 392]
0.1 to 1	CNc1ccnc(Nc2ccc(OC)c(OCC3CCN(C)C3)c2)n1 (centres unmarked) [Compound 393]
1 to 10	CNc1ccnc(Nc2ccc(Cl)c(OCCCN3CCCC3)c2)n1 [Compound 398]
0.1 to 1	CNc1ccnc(Nc2ccc(OC)c(COC3CCN(C)C3)c2)n1 (centres unmarked) [Compound 407, N^2-(4-methoxy-3-(((1-methylpyrrolidin-3-yl)oxy)methyl)phenyl)-N^4-methylpyrimidine-2,4-diamine]
0.1 to 1	CCN1CCC(COc2cc(Nc3nccc(NC)n3)ccc2OC)C1 (centres unmarked) [Compound 408, N^2-(3-((1-ethylpyrrolidin-3-yl)methoxy)-4-methoxyphenyl)-N^4-methylpyrimidine-2,4-diamine]
0.1 to 1	CNc1ccnc(Nc2ccc(OC)c(OCC3CCN(C(C)C)C3)c2)n1 (centres unmarked) [Compound 409, N^2-(3-((1-isopropylpyrrolidin-3-yl)methoxy)-4-methoxyphenyl)-N^4-methylpyrimidine-2,4-diamine]
0.1 to 1	CNc1ccnc(Nc2ccc(OC)c(OCC3CCN(C4CC4)C3)c2)n1 (centres unmarked) [Compound 411, N^2-(3-((1-cyclopropylpyrrolidin-3-yl)methoxy)-4-methoxyphenyl)-N^4-methylpyrimidine-2,4-diamine]
0.1 to 1	CNc1cc(C)nc(Nc2ccc(OC)c(OCC3CCCN(C)C3)c2)n1 (centres unmarked) [Compound 413, N^2-(4-methoxy-3-((1-methylpiperidin-3-yl)methoxy)phenyl)-N^4,6-dimethylpyrimidine-2,4-diamine]
0.1 to 1	CNc1ccnc(Nc2ccc(OC)c(OCCCN3CC(O)C3)c2)n1 [Compound 414, 1-(3-(2-methoxy-5-((4-(methylamino)pyrimidin-2-yl)amino)phenoxy)propyl)azetidin-3-ol]
